Experimental data from patent US10588317B2, “Isoxazoline-substituted benzamides and analogues as insecticides” (priority 2015, dated 2020).

Key:
Format in all cases: in vivo
Myzus persicae = Myzus persicae (green peach aphid): feeding/contact activity; details: 144 h, application rate 200 ppm, aphid population of mixed ages, 6 days after infestation, read-out: mortality
Experimental: Sunflower leaf discs were placed onto agar in a 24-well microtiter plate and sprayed with aqueous test solutions prepared from 10'000 ppm DMSO stock solutions. After drying, the leaf discs were infested with an aphid population of mixed ages. The samples were assessed for mortality 6 days after infestation.

Spodoptera littoralis [1] = assay: Spodoptera littoralis (Egyptian cotton leaf worm), sprayed cotton leaf discs; details: foliar, 72 h, application rate 200 ppm, L1 larvae, 3 days after infestation, read-out: control (mortality, anti-feeding effect, growth inhibition)
Method in brief: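 Cotton leaf discs on agar sprayed with aqueous test solutions made from 10'000 ppm DMSO stock; after drying, infested with five L1 larvae. Mortality, anti-feeding and growth inhibition scored versus untreated samples 3 days after infestation; control counted when any category exceeds untreated.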

Spodoptera littoralis [2] = assay: Spodoptera littoralis (Egyptian cotton leaf worm), uptake by lettuce roots from agar; details: 144 h, read-out: effect in at least one of the three categories (mortality, anti-feeding, or growth inhibition);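 also: 12.5 ppm test rate in agar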
Method in brief: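 Compound from 10'000 ppm DMSO stocks was mixed into agar, and lettuce grew on it for 7 days to take it up via roots. Cut leaves were infested with Spodoptera eggs; mortality, anti-feedant effect and growth inhibition scored 6 days later versus untreated samples.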

Thrips tabaci = Thrips tabaci (onion thrips): feeding/contact activity; details: 144 h, application rate 200 ppm, Thrips population of mixed ages, 6 days after infestation, read-out: mortality
Experimental: Sunflower leaf discs were placed on agar in 24-well microtiter plates and sprayed with aqueous test solutions prepared from 10'000 ppm DMSO stock solutions. After drying the leaf discs were infested with a Thrips population of mixed ages. The samples were assessed for mortality 6 days after infestation.

Tetranychus urticae = Tetranychus urticae (two-spotted spider mite): feeding/contact activity; details: 192 h, application rate 200 ppm, mixed population (mobile stages), 8 days after infestation, read-out: mortality
Experimental: Bean leaf discs on agar in 24-well microtiter plates were sprayed with aqueous test solutions prepared from 10'000 ppm DMSO stock solutions. After drying the leaf discs were infested with a mite population of mixed ages. The samples were assessed for mortality on mixed population (mobile stages) 8 days after infestation.

Plutella xylostella = Plutella xylostella (diamond back moth), artificial diet; details: 120 h, application rate 200 ppm, L2 larvae, 5 days after infestation, read-out: effect in at least one of the two categories (mortality or growth inhibition)
Method in brief: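 Artificial diet in 24-well plates treated with aqueous test solutions made from 10'000 ppm DMSO stocks, dried, then infested with L2 larvae (10 to 15 per well). Mortality and growth inhibition scored against untreated samples 5 days after infestation; activity cut-off at least 80% in either category at 200 ppm.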

Euschistus heros = Euschistus heros (neotropical brown stink bug), sprayed soybean leaves; details: 120 h, application rate 200 ppm, N2 nymphs, 5 days after infestation, read-out: effect in at least one of the two categories (mortality or growth inhibition)
Method in brief: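 Soybean leaves on agar sprayed with aqueous dilutions of DMSO stocks, dried, then infested with N2 nymphs. Mortality and growth inhibition scored against untreated samples 5 days after infestation; application rate 200 ppm.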

Diabrotica balteata = Diabrotica balteata (corn root worm), sprayed maize sprouts; details: 96 h, application rate 200 ppm, L2 larvae, 4 days after infestation, read-out: effect in at least one of the two categories (mortality or growth inhibition)
Method in brief: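 Maize sprouts on agar sprayed with aqueous dilutions of DMSO stocks, dried, then infested with L2 larvae (6–10 per well). Mortality and growth inhibition scored against untreated controls 4 days after infestation, at 200 ppm application rate.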

CCS(=O)(=O)N1C[C@@H](NC(=O)c2ccc(C3=NO[C@@](c4cc(Cl)c(Cl)c(Cl)c4)(C(F)(F)F)C3)cc2Cl)CO1 [Compound A147, 2-chloro-N-[(4R)-2-ethylsulfonylisoxazolidin-4-yl]-4-[(5S)-5-(3,4,5-trichlorophenyl)-5-(trifluoromethyl)-4H-isoxazol-3-yl]benzamide]
≥ 80%: mortality at 200 ppm (Myzus persicae) | mortality at 200 ppm (Spodoptera littoralis [1]) | percent control (mortality, anti-feedant effect or growth inhibition) at 12.5 ppm (Spodoptera littoralis [2]) | mortality at 200 ppm (Thrips tabaci) | mortality at 200 ppm (Tetranychus urticae) | percent effect (mortality or growth inhibition) at 200 ppm (Plutella xylostella) | percent effect (mortality or growth inhibition) at 200 ppm (Euschistus heros) | percent effect (mortality or growth inhibition) at 200 ppm (Diabrotica balteata)

CS(=O)(=O)N1CC(NC(=O)c2ccc(C3=NO[C@@](c4cc(Cl)c(F)c(Cl)c4)(C(F)(F)F)C3)cc2Cl)CO1 (stereo partly drawn) [Compound A19, 2-chloro-4-[(5S)-5-(3,5-dichloro-4-fluoro-phenyl)-5-(trifluoromethyl)-4H-isoxazol-3-yl]-N-(2-methylsulfonylisoxazolidin-4-yl)benzamide]
≥ 80%: mortality at 200 ppm (Myzus persicae) | mortality at 200 ppm (Spodoptera littoralis [1]) | percent control (mortality, anti-feedant effect or growth inhibition) at 12.5 ppm (Spodoptera littoralis [2]) | mortality at 200 ppm (Thrips tabaci) | mortality at 200 ppm (Tetranychus urticae) | percent effect (mortality or growth inhibition) at 200 ppm (Plutella xylostella) | percent effect (mortality or growth inhibition) at 200 ppm (Euschistus heros) | percent effect (mortality or growth inhibition) at 200 ppm (Diabrotica balteata)

CNS(=O)(=O)N1CC(NC(=O)c2ccc(C3=NO[C@@](c4cc(Cl)c(Cl)c(Cl)c4)(C(F)(F)F)C3)cc2C)CO1 (stereo partly drawn) [Compound A69, 2-methyl-N-[2-(methylsulfamoyl)isoxazolidin-4-yl]-4-[(5S)-5-(3,4,5-trichlorophenyl)-5-(trifluoromethyl)-4H-isoxazol-3-yl]benzamide]
≥ 80%: mortality at 200 ppm (Myzus persicae) | mortality at 200 ppm (Spodoptera littoralis [1]) | percent control (mortality, anti-feedant effect or growth inhibition) at 12.5 ppm (Spodoptera littoralis [2]) | mortality at 200 ppm (Thrips tabaci) | mortality at 200 ppm (Tetranychus urticae) | percent effect (mortality or growth inhibition) at 200 ppm (Plutella xylostella) | percent effect (mortality or growth inhibition) at 200 ppm (Euschistus heros) | percent effect (mortality or growth inhibition) at 200 ppm (Diabrotica balteata)

CCN(C)S(=O)(=O)N1C[C@@H](NC(=O)c2ccc(C3=NO[C@@](c4cc(Cl)cc(C(F)(F)F)c4)(C(F)(F)F)C3)cc2C)CO1 [Compound A141]
≥ 80%: mortality at 200 ppm (Myzus persicae) | mortality at 200 ppm (Spodoptera littoralis [1]) | percent control (mortality, anti-feedant effect or growth inhibition) at 12.5 ppm (Spodoptera littoralis [2]) | mortality at 200 ppm (Thrips tabaci) | mortality at 200 ppm (Tetranychus urticae) | percent effect (mortality or growth inhibition) at 200 ppm (Plutella xylostella) | percent effect (mortality or growth inhibition) at 200 ppm (Euschistus heros) | percent effect (mortality or growth inhibition) at 200 ppm (Diabrotica balteata)

CS(=O)(=O)N1C[C@@H](NC(=O)c2ccc(C3=NO[C@@](c4cc(Cl)cc(C(F)(F)F)c4)(C(F)(F)F)C3)cc2Cl)CO1 [Compound A123]
≥ 80%: mortality at 200 ppm (Myzus persicae) | mortality at 200 ppm (Spodoptera littoralis [1]) | percent control (mortality, anti-feedant effect or growth inhibition) at 12.5 ppm (Spodoptera littoralis [2]) | mortality at 200 ppm (Thrips tabaci) | mortality at 200 ppm (Tetranychus urticae) | percent effect (mortality or growth inhibition) at 200 ppm (Plutella xylostella) | percent effect (mortality or growth inhibition) at 200 ppm (Euschistus heros) | percent effect (mortality or growth inhibition) at 200 ppm (Diabrotica balteata)

CNS(=O)(=O)N1C[C@@H](NC(=O)c2ccc(C3=NO[C@@](c4cc(Cl)cc(C(F)(F)F)c4)(C(F)(F)F)C3)cc2C)CO1 [Compound A138]
≥ 80%: mortality at 200 ppm (Myzus persicae) | mortality at 200 ppm (Spodoptera littoralis [1]) | percent control (mortality, anti-feedant effect or growth inhibition) at 12.5 ppm (Spodoptera littoralis [2]) | mortality at 200 ppm (Thrips tabaci) | mortality at 200 ppm (Tetranychus urticae) | percent effect (mortality or growth inhibition) at 200 ppm (Plutella xylostella) | percent effect (mortality or growth inhibition) at 200 ppm (Euschistus heros) | percent effect (mortality or growth inhibition) at 200 ppm (Diabrotica balteata)

Cc1cc(C2=NO[C@@](c3cc(Cl)c(F)c(Cl)c3)(C(F)(F)F)C2)ccc1C(=O)N[C@H]1CON(S(C)(=O)=O)C1 (single isomer, unassigned) [Compound A13]
≥ 80%: mortality at 200 ppm (Myzus persicae) | mortality at 200 ppm (Spodoptera littoralis [1]) | percent control (mortality, anti-feedant effect or growth inhibition) at 12.5 ppm (Spodoptera littoralis [2]) | mortality at 200 ppm (Thrips tabaci) | mortality at 200 ppm (Tetranychus urticae) | percent effect (mortality or growth inhibition) at 200 ppm (Plutella xylostella) | percent effect (mortality or growth inhibition) at 200 ppm (Euschistus heros) | percent effect (mortality or growth inhibition) at 200 ppm (Diabrotica balteata)

CCNS(=O)(=O)N1C[C@@H](NC(=O)c2ccc(C3=NO[C@@](c4cc(Cl)c(F)c(Cl)c4)(C(F)(F)F)C3)cc2C)CO1 [Compound A133, 4-[(5S)-5-(3,5-dichloro-4-fluoro-phenyl)-5-(trifluoromethyl)-4H-isoxazol-3-yl]-N-[(4R)-2-(ethylsulfamoyl)isoxazolidin-4-yl]-2-methyl-benzamide]
≥ 80%: mortality at 200 ppm (Myzus persicae) | mortality at 200 ppm (Spodoptera littoralis [1]) | percent control (mortality, anti-feedant effect or growth inhibition) at 12.5 ppm (Spodoptera littoralis [2]) | mortality at 200 ppm (Thrips tabaci) | mortality at 200 ppm (Tetranychus urticae) | percent effect (mortality or growth inhibition) at 200 ppm (Plutella xylostella) | percent effect (mortality or growth inhibition) at 200 ppm (Euschistus heros) | percent effect (mortality or growth inhibition) at 200 ppm (Diabrotica balteata)

Cc1cc(C2=NO[C@@](c3cc(Cl)c(Cl)c(Cl)c3)(C(F)(F)F)C2)ccc1C(=O)N[C@H]1CON(S(C)(=O)=O)C1 [Compound A36]
≥ 80%: mortality at 200 ppm (Myzus persicae) | mortality at 200 ppm (Spodoptera littoralis [1]) | percent control (mortality, anti-feedant effect or growth inhibition) at 12.5 ppm (Spodoptera littoralis [2]) | mortality at 200 ppm (Thrips tabaci) | mortality at 200 ppm (Tetranychus urticae) | percent effect (mortality or growth inhibition) at 200 ppm (Plutella xylostella) | percent effect (mortality or growth inhibition) at 200 ppm (Euschistus heros) | percent effect (mortality or growth inhibition) at 200 ppm (Diabrotica balteata)

Cc1cc(C2=NO[C@@](c3cc(Cl)cc(Cl)c3)(C(F)(F)F)C2)ccc1C(=O)N[C@H]1CON(S(=O)(=O)NC2CC2)C1 [Compound A155]
≥ 80%: mortality at 200 ppm (Myzus persicae) | mortality at 200 ppm (Spodoptera littoralis [1]) | percent control (mortality, anti-feedant effect or growth inhibition) at 12.5 ppm (Spodoptera littoralis [2]) | mortality at 200 ppm (Thrips tabaci) | mortality at 200 ppm (Tetranychus urticae) | percent effect (mortality or growth inhibition) at 200 ppm (Plutella xylostella) | percent effect (mortality or growth inhibition) at 200 ppm (Euschistus heros) | percent effect (mortality or growth inhibition) at 200 ppm (Diabrotica balteata)

Cc1cc(C2=NO[C@@](c3cc(Cl)cc(Cl)c3)(C(F)(F)F)C2)ccc1C(=O)NC1CON(S(C)(=O)=O)C1 (stereo partly drawn) [Compound A40]
≥ 80%: mortality at 200 ppm (Myzus persicae) | mortality at 200 ppm (Spodoptera littoralis [1]) | percent control (mortality, anti-feedant effect or growth inhibition) at 12.5 ppm (Spodoptera littoralis [2]) | mortality at 200 ppm (Thrips tabaci) | mortality at 200 ppm (Tetranychus urticae) | percent effect (mortality or growth inhibition) at 200 ppm (Plutella xylostella) | percent effect (mortality or growth inhibition) at 200 ppm (Euschistus heros) | percent effect (mortality or growth inhibition) at 200 ppm (Diabrotica balteata)

CNS(=O)(=O)N1C[C@@H](NC(=O)c2ccc(C3=NO[C@@](c4cc(Cl)cc(C(F)(F)F)c4)(C(F)(F)F)C3)cc2Cl)CO1 [Compound A115, 2-chloro-4-[(5S)-5-[3-chloro-5-(trifluoromethyl)phenyl]-5-(trifluoromethyl)-4H-isoxazol-3-yl]-N-[(4R)-2-(methylsulfamoyl)isoxazolidin-4-yl]benzamide]
≥ 80%: mortality at 200 ppm (Myzus persicae) | mortality at 200 ppm (Spodoptera littoralis [1]) | percent control (mortality, anti-feedant effect or growth inhibition) at 12.5 ppm (Spodoptera littoralis [2]) | mortality at 200 ppm (Thrips tabaci) | mortality at 200 ppm (Tetranychus urticae) | percent effect (mortality or growth inhibition) at 200 ppm (Plutella xylostella) | percent effect (mortality or growth inhibition) at 200 ppm (Euschistus heros) | percent effect (mortality or growth inhibition) at 200 ppm (Diabrotica balteata)
